The target in experiment [1] is recombinant RORγ Ligand Binding Domain (LBD) protein (Homo sapiens (Human), UniProt P51449). In words: Radio-Ligand RORγ Binding Assay (Assay 1). Particulars: radio-ligand 25-hydroxy [26,27-3H]-cholesterol competition. In short, it runs like this:
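Cell-free competition with 25-hydroxy[26,27-³H]-cholesterol for the ligand site of 6×His-GST-tagged RORγ LBD; SPA read-out with poly-Lys YSi beads after shaking and incubation at rt. IC50 taken as the inflection point of a four-parameter fit of percent inhibition vs concentration.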

Experiment [2] deals with full-length RORγt in Jurkat cells (Homo sapiens (Human), UniProt P51449). In words: RORγt 5×RORE Assay in Jurkat Cells (Assay 2). The experiment is classed as cell-based. Particulars: RORγt 5×RORE Nanoluc reporter.
full-length RORγt in Jurkat cells, sequence (P51449 other isoform, or with tags, fused parts or gaps): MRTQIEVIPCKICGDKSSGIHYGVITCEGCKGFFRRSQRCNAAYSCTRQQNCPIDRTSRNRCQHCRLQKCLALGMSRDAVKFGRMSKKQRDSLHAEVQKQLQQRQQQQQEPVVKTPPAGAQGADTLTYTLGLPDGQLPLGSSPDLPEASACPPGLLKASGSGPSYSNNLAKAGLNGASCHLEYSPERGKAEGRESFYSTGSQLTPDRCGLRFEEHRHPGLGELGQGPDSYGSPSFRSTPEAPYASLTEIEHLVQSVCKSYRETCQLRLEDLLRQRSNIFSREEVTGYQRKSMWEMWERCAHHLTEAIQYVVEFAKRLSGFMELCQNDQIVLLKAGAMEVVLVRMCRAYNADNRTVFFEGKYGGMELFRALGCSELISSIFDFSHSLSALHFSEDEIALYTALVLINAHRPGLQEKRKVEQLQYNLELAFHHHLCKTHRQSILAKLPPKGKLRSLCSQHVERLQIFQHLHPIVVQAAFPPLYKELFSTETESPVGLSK

The structures appear in SMILES notation.

recombinant RORγ Ligand Binding Domain (LBD) protein, sequence (P51449 269-508): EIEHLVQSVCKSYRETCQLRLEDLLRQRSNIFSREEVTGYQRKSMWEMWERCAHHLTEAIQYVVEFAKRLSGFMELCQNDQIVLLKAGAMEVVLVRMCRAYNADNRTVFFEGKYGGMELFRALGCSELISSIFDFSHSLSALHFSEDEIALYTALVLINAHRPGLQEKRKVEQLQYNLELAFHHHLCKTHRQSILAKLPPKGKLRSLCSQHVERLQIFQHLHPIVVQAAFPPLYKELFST

For `CS(=O)(=O)c1ccc([C@H](CO)NC(=O)c2ccc3c(c2)nc(C[C@H]2CC[C@H](C(F)(F)F)CC2)n3C2CC2)cc1` [BE-32, 1-cyclopropyl-N-((R)-2-hydroxy-1-(4-(methylsulfonyl)phenyl)ethyl)-2-(((1r,4R)-4-(trifluoromethyl)cyclohexyl)methyl)-1H-benzo[d]imidazole-5-carboxamide], the inhibitory constant (Ki) in experiment [1] is below 100 nM. This compound displayed a half-inhibitory concentration (IC50) in experiment [2] below 100 nM.

For the compound `CNS(=O)(=O)c1ccc(CNC(=O)c2ccc3c(c2)nc(C[C@H]2CC[C@H](C(F)(F)F)CC2)n3C2CC2)cc1` [BE-33, 1-cyclopropyl-N-(4-(N-methylsulfamoyl)benzyl)-2-(((1r,4r)-4-(trifluoromethyl)cyclohexyl)methyl)-1H-benzo[d]imidazole-5-carboxamide], the inhibition constant Ki in experiment [1] is below 100 nM. The half-inhibitory concentration (IC50) in experiment [2] was below 100 nM.

In the case of `CCn1c(Cc2ccc(C(F)(F)F)cc2)nc2cc(C(=O)NCc3ccc(S(=O)(=O)CC)cc3)ccc21` [BE-35, 1-ethyl-N-(4-(ethylsulfonyl)benzyl)-2-(4-(trifluoromethyl)benzyl)-1H-benzo[d]imidazole-5-carboxamide], the inhibition constant Ki in experiment [1] is below 100 nM. In experiment [2], this compound gave an IC50 below 100 nM.

Regarding `CCS(=O)(=O)c1ccc(CNC(=O)c2ccc3c(c2)nc(Cc2ccc(C(F)(F)F)cc2)n3C2CC2)cc1` [BE-36, 1-cyclopropyl-N-(4-(ethylsulfonyl)benzyl)-2-(4-(trifluoromethyl)benzyl)-1H-benzo[d]imidazole-5-carboxamide], the inhibition constant (Ki) in experiment [1] is below 100 nM. Besides, in experiment [2], the IC50 is below 100 nM.

As to `CCS(=O)(=O)c1ccc(CNC(=O)c2ccc3c(c2)nc(Cc2ccc(C(F)(F)F)cc2)n3CC(F)(F)F)cc1` [BE-37, N-(4-(ethylsulfonyl)benzyl)-1-(2,2,2-trifluoroethyl)-2-(4-(trifluoromethyl)benzyl)-1H-benzo[d]imidazole-5-carboxamide], the inhibition constant (Ki) in experiment [1] is below 100 nM. The compound also returned an IC50 in experiment [2] below 100 nM.

With `CCS(=O)(=O)c1ccc(CNC(=O)c2ccc3c(c2)nc(C[C@H]2CC[C@H](OC)CC2)n3C2CC2)cc1` [BE-46.1, 1-cyclopropyl-N-(4-(ethylsulfonyl)benzyl)-2-(((1r,4r)-4-methoxycyclohexyl)methyl)-1H-benzo[d]imidazole-5-carboxamide], the inhibition constant Ki in experiment [1] is below 100 nM. Besides, the half-maximal inhibitory concentration (IC50) in experiment [2] was in the range of 100 to 1000 nM.

On to `CCS(=O)(=O)c1ccc(CNC(=O)c2ccc3c(c2)nc(C[C@H]2CC[C@@H](OC)CC2)n3C2CC2)cc1` [BE-46.2, 1-cyclopropyl-N-(4-(ethylsulfonyl)benzyl)-2-(((1s,4s)-4-methoxycyclohexyl)methyl)-1H-benzo[d]imidazole-5-carboxamide], for which the inhibitory constant (Ki) in experiment [1] is below 100 nM. In experiment [2], this compound had an IC50 above 1000 nM.

Regarding `CCS(=O)(=O)c1ccc([C@H](CO)NC(=O)c2ccc3c(c2)nc(Cc2ccc(OC(F)(F)F)cc2)n3C2CC2)cc1` [BE-47, (R)-1-cyclopropyl-N-(1-(4-(ethylsulfonyl)phenyl)-2-hydroxyethyl)-2-(4-(trifluoromethoxy)benzyl)-1H-benzo[d]imidazole-5-carboxamide], the Ki in experiment [1] is below 100 nM. Further, in experiment [2], the half-inhibitory concentration (IC50) was below 100 nM.

Take `CCS(=O)(=O)c1ccc(CNC(=O)c2ccc3c(c2)nc(Cc2ccc(OC(F)F)cc2)n3C2CC2)cc1` [BE-48, 1-cyclopropyl-2-(4-(difluoromethoxy)benzyl)-N-(4-(ethylsulfonyl)benzyl)-1H-benzo[d]imidazole-5-carboxamide]: the inhibition constant (Ki) in experiment [1] is below 100 nM. The compound further came in with an IC50 in experiment [2] below 100 nM.

For the compound `CCS(=O)(=O)c1ccc(CNC(=O)c2ccc3c(c2)nc(CC2CCN(C(=O)OC(C)(C)C)CC2)n3C2CC2)cc1` [BE-49, tert-butyl 4-((1-cyclopropyl-5-((4-(ethylsulfonyl)benzyl)carbamoyl)-1H-benzo[d]imidazol-2-yl)methyl)piperidine-1-carboxylate], the Ki in experiment [1] was below 100 nM. Also, the IC50 in experiment [2] was in the range of 100 to 1000 nM.

As to `CCS(=O)(=O)c1ccc(CNC(=O)c2ccc3c(c2)nc(Cc2ccc(Cl)cn2)n3C2CC2)cc1` [BE-52, 2-((5-chloropyridin-2-yl)methyl)-1-cyclopropyl-N-(4-(ethylsulfonyl)benzyl)-1H-benzo[d]imidazole-5-carboxamide], in experiment [1], the Ki was below 100 nM. This compound also yielded a 50% inhibitory concentration (IC50) in experiment [2] above 1000 nM.

For `CCS(=O)(=O)c1ccc(CNC(=O)c2ccc3c(c2)nc(CN2CCC(C(F)(F)F)CC2)n3CC(C)C)cc1` [BE-53, N-(4-(ethylsulfonyl)benzyl)-1-isobutyl-2-((4-(trifluoromethyl)piperidin-1-yl)methyl)-1H-benzo[d]imidazole-5-carboxamide], the inhibition constant Ki in experiment [1] was below 100 nM. Besides, the IC50 in experiment [2] was below 100 nM.

Take `CCS(=O)(=O)c1ccc([C@H](CO)NC(=O)c2ccc3c(c2)nc(CN2CCC(C(F)(F)F)CC2)n3C2CC2)cc1` [BE-54, (R)-1-cyclopropyl-N-(1-(4-(ethylsulfonyl)phenyl)-2-hydroxyethyl)-2-((4-(trifluoromethyl)piperidin-1-yl)methyl)-1H-benzo[d]imidazole-5-carboxamide]: the inhibitory constant (Ki) in experiment [1] was below 100 nM. In experiment [2], this compound registered a half-inhibitory concentration (IC50) below 100 nM.

On to `CCS(=O)(=O)c1ccc(CNC(=O)c2ccc3c(c2)nc(C(=O)c2ccc(C(F)(F)F)cc2)n3C2CC2)cc1` [BE-65, 1-cyclopropyl-N-(4-(ethylsulfonyl)benzyl)-2-(4-(trifluoromethyl)benzoyl)-1H-benzo[d]imidazole-5-carboxamide], for which, in experiment [1], the Ki is below 100 nM. In experiment [2], the half-inhibitory concentration (IC50) was below 100 nM.

Turning to `CCS(=O)(=O)c1ccc([C@H](CO)NC(=O)c2ccc3c(c2)nc(Oc2ccc(C(F)(F)F)cc2)n3C2CC2)nc1` [BE-70, (R)-1-cyclopropyl-N-(1-(5-(ethylsulfonyl)pyridin-2-yl)-2-hydroxyethyl)-2-(4-(trifluoromethyl)phenoxy)-1H-benzo[d]imidazole-5-carboxamide], in experiment [1], the Ki was below 100 nM. The IC50 in experiment [2] is below 100 nM.

With `CCn1c(Cc2ccc(C(F)(F)F)cc2)cc2cc(C(=O)NCc3ccc(S(=O)(=O)CC)cc3)ccc21` [IN-1, 1-ethyl-N-(4-(ethylsulfonyl)benzyl)-2-(4-(trifluoromethyl)benzyl)-1H-indole-5-carboxamide], the Ki in experiment [1] was below 100 nM. For the same compound, the IC50 in experiment [2] was below 100 nM.

As for `CCn1c(Cc2ccc(C(F)(F)F)cc2)cc2cc(C(=O)NCc3ccc(S(=O)(=O)CC)cn3)ccc21` [IN-2, 1-ethyl-N-((5-(ethylsulfonyl)pyridin-2-yl)methyl)-2-(4-(trifluoromethyl)benzyl)-1H-indole-5-carboxamide], the Ki in experiment [1] was below 100 nM. The compound also registered an IC50 in experiment [2] below 100 nM.

For the compound `CCn1c(Cc2ccc(C(F)(F)F)cc2)cc2cc(C(=O)N[C@@H](CO)c3ccc(S(=O)(=O)CC)cc3)ccc21` [IN-3, (R)-1-ethyl-N-(1-(4-(ethylsulfonyl)phenyl)-2-hydroxyethyl)-2-(4-(trifluoromethyl)benzyl)-1H-indole-5-carboxamide], the Ki in experiment [1] is below 100 nM. In experiment [2], this compound showed an IC50 below 100 nM.

With `CCn1c(Cc2ccc3c(c2)OC(F)(F)O3)cc2cc(C(=O)N[C@@H](CO)c3ccc(S(=O)(=O)CC)cn3)ccc21` [IN-5, (R)-2-((2,2-difluorobenzo[d][1,3]dioxol-5-yl)methyl)-1-ethyl-N-(1-(5-(ethylsulfonyl)pyridin-2-yl)-2-hydroxyethyl)-1H-indole-5-carboxamide], the Ki in experiment [1] is below 100 nM. The compound further displayed an IC50 in experiment [2] below 100 nM.

For the compound `CCn1c(Cc2ccc(Cl)cc2)cc2cc(C(=O)N[C@@H](CO)c3ccc(S(=O)(=O)CC)cn3)ccc21` [IN-8, (R)-2-(4-chlorobenzyl)-1-ethyl-N-(1-(5-(ethylsulfonyl)pyridin-2-yl)-2-hydroxyethyl)-1H-indole-5-carboxamide], the inhibition constant Ki in experiment [1] is below 100 nM. Further, in experiment [2], the IC50 was in the range of 100 to 1000 nM.

Regarding `CCn1c(Cc2ccc(C(F)(F)F)cn2)cc2cc(C(=O)N[C@@H](CO)c3ccc(S(=O)(=O)CC)cc3)ccc21` [IN-9, (R)-1-ethyl-N-(1-(4-(ethylsulfonyl)phenyl)-2-hydroxyethyl)-2-((5-(trifluoromethyl)pyridin-2-yl)methyl)-1H-indole-5-carboxamide], in experiment [1], the Ki is below 100 nM. In experiment [2], this compound gave an IC50 below 100 nM.

Regarding `CCn1c(CN2CCC(C(F)(F)F)CC2)cc2cc(C(=O)N[C@@H](CO)c3ccc(S(=O)(=O)CC)cc3)ccc21` [IN-10, (R)-1-ethyl-N-(1-(4-(ethylsulfonyl)phenyl)-2-hydroxyethyl)-2-((4-(trifluoromethyl)piperidin-1-yl)methyl)-1H-indole-5-carboxamide], in experiment [1], the Ki was below 100 nM. Besides, in experiment [2], the 50% inhibitory concentration (IC50) is below 100 nM.

As to `CCn1c(CN2CCC(C(F)(F)F)CC2)cc2cc(C(=O)N[C@@H](CO)c3ccc(S(=O)(=O)CC)cn3)ccc21` [IN-11, (R)-1-ethyl-N-(1-(5-(ethylsulfonyl)pyridin-2-yl)-2-hydroxyethyl)-2-((4-(trifluoromethyl)piperidin-1-yl)methyl)-1H-indole-5-carboxamide], the inhibition constant (Ki) in experiment [1] is below 100 nM. This compound also displayed an IC50 in experiment [2] below 100 nM.

Consider `CCS(=O)(=O)c1ccc(CNC(=O)c2ccc3c(c2)cc(CN2CCC(C(F)(F)F)CC2)n3C2CC2)cc1` [IN-12, 1-cyclopropyl-N-(4-(ethylsulfonyl)benzyl)-2-((4-(trifluoromethyl)piperidin-1-yl)methyl)-1H-indole-5-carboxamide], for which the Ki in experiment [1] was below 100 nM. Also, the concentration for half-maximal inhibition (IC50) in experiment [2] is below 100 nM.

For the compound `CCS(=O)(=O)c1ccc([C@H](CO)NC(=O)c2ccc3c(c2)cc(CN2CCC(C(F)(F)F)CC2)n3C2CC2)cc1` [IN-13, (R)-1-cyclopropyl-N-(1-(4-(ethylsulfonyl)phenyl)-2-hydroxyethyl)-2-((4-(trifluoromethyl)piperidin-1-yl)methyl)-1H-indole-5-carboxamide], the inhibition constant (Ki) in experiment [1] was below 100 nM. In addition, the IC50 in experiment [2] is below 100 nM.

In the case of `CCn1c(C[C@H]2CC[C@H](C(F)(F)F)CC2)cc2cc(C(=O)NCc3ccc(S(=O)(=O)CC)cn3)ccc21` [IN-15.1, 1-ethyl-N-((5-(ethylsulfonyl)pyridin-2-yl)methyl)-2-(((1r,4r)-4-(trifluoromethyl)cyclohexyl)methyl)-1H-indole-5-carboxamide], the Ki in experiment [1] was below 100 nM. Moreover, in experiment [2], the IC50 was below 100 nM.

A word on the Ki: it is the equilibrium dissociation constant of an inhibitor or competing ligand from its target. As a reminder, the IC50 is the concentration that inhibits the measured activity by half.
